Results: patent publication US11214594B2, “Antimicrobial peptide having synergistic antibacterial effect with antibiotics on multidrug resistant bacteria, and use thereof” (priority 2016, dated 2022)
Values after ≈ are worked out from the molar mass of the structure shown. Read-outs that look alike come from different tables or passages of the source. Where a SMILES comes first, the peptide text is derived from it. [ ]: non-standard residue; d: D form.

Key:
MDRPA 2002 = assay type: cell-based, Pseudomonas aeruginosa
Outline: (§1)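 MIC read-out = lowest peptide level with no bacterial proliferation. Strains diluted in MH medium to 2×10^6 CFU; peptide twofold serial dilutions in MH added 1:1 in microtiter wells.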

MDRPA 2003 = assay type: cell-based, Pseudomonas aeruginosa
Outline: as §1

A. baumannii [1] = test: microbe, parasite or virus in culture; assay type: cell-based, Acinetobacter baumannii
Outline: as §1

MDRAB 12035 [2] = test: microbe, parasite or virus in culture; assay type: cell-based, Acinetobacter baumannii
Outline: as §1

B. subtilis = test: microbe, parasite or virus in culture; assay type: cell-based, Bacillus subtilis
Outline: as §1

A. baumannii [3] = test: MIC of antibiotic during combined treatment with antimicrobial peptide; assay type: cell-based, Acinetobacter baumannii; settings: for Antibiotic MIC, Erythromycin / Antibiotic MIC, Linezolid / Antibiotic MIC, Vancomycin: A. baumannii
Outline: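 First, antibiotic solution is diluted with MH medium; next, the dilution is dispensed into wells containing peptide; finally, the orientation is swapped and MIC of each mixture determined.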

MDRAB 12035 [4] = test: as above; assay type: cell-based, Acinetobacter baumannii
Outline: (§2)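 Broth microdilution in MH medium; strains were diluted to 2×10^6 CFU per ml before plating. Peptide was serially diluted stepwise at 2:1 starting from its MIC, and MH-diluted antibiotic was then added to determine MIC. The reversed arrangement was also tested.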

E. coli = assay type: cell-based, Escherichia coli; settings: E. coli
Outline: as §2

MDREC 1229 = assay type: cell-based, Escherichia coli
Outline: as §2

[5] = system: multi-drug resistant bacteria; test: MIC, summary statements for multi-drug resistant bacteria; assay type: cell-based
Outline: as §1

[6] = combined with peptide at 1 μg/ml
[7] = combined with peptide at 2 μg/ml
[8] = combined with peptide at 4 μg/ml
[9] = combined with peptide at 6 μg/ml
[10] = combined with peptide at 8 μg/ml
[11] = combined with peptide at 16 μg/ml
[12] = combined with peptide at 32 μg/ml
[13] = combined with peptide at 64 μg/ml
[14] = peptide treatment concentration 1 μg/ml
[15] = peptide treatment concentration 2 μg/ml
[16] = peptide treatment concentration 4 μg/ml
[17] = peptide treatment concentration 6 μg/ml
[18] = peptide treatment concentration 8 μg/ml
[19] = peptide treatment concentration 16 μg/ml
[20] = peptide treatment concentration 32 μg/ml
[21] = peptide treatment concentration 64 μg/ml

## CC[C@H](C)[C@H](NC(=O)[C@H](CCCCN)NC(=O)[C@H](Cc1c[nH]c2ccccc12)NC(=O)[C@@H](N)CCCNC(=N)N)C(=O)N[C@@H](Cc1ccccc1)C(=O)N[C@@H](CCCCN)C(=O)N[C@@H](CCCCN)C(=O)N[C@H](C(=O)N[C@H](CCCCN)C(=O)N[C@@H](CCCCN)C(=O)N[C@@H](CC(C)C)C(=O)N[C@@H](CC(C)C)C(=O)N[C@@H](Cc1c[nH]cn1)C(=O)N[C@@H](CCCCN)C(=O)N[C@@H](Cc1ccccc1)C(=O)N[C@@H](CCCCN)C(=O)N[C@@H](CCCCN)C(=O)N[C@@H](Cc1ccccc1)C(N)=O)[C@@H](C)CC [PapMA-17, RWK IFK KIk KLL HKF KKF-NH2] (H-RWKIFKKI[dK]KLLHKFKKF-NH2; N-terminus assumed)
MDRPA 2002
  Minimal inhibitory concentration MIC: 16 µg/mL (≈ 6.62 µM)
MDRPA 2003
  Minimal inhibitory concentration MIC: 16 µg/mL (≈ 6.62 µM)
A. baumannii [1]
  Minimal inhibitory concentration MIC: 32 µg/mL (≈ 13.2 µM)
  Peptide MIC, peptide alone: 32 µg/mL
A. baumannii [1]; A. baumannii and S. typhimurium
  Antibacterial activity relative to PapMA-1: at least twice as high
MDRAB 12035 [2]
  Minimal inhibitory concentration MIC: 32 µg/mL (≈ 13.2 µM)
  Peptide MIC, peptide alone: 32 µg/mL
B. subtilis
  Minimal inhibitory concentration MIC: >128 µg/mL
A. baumannii [3]; A. baumannii and MDRAB 12035
  Synergistic effect of antibacterial activity with existing antibiotics compared with PapMA-1: level similar to that of PapMA-1 peptide
A. baumannii [3]; [6]
  Antibiotic MIC, Erythromycin: 32 µg/mL
  Antibiotic MIC, Linezolid: >128 µg/mL
  Antibiotic MIC, Vancomycin: >128 µg/mL
A. baumannii [3]; [7]
  Antibiotic MIC, Erythromycin: 16 µg/mL
  Antibiotic MIC, Linezolid: 64 µg/mL
  Antibiotic MIC, Vancomycin: >128 µg/mL
A. baumannii [3]; [8]
  Antibiotic MIC, Erythromycin: 8 µg/mL
  Antibiotic MIC, Linezolid: 32 µg/mL
  Antibiotic MIC, Vancomycin: 64 µg/mL
A. baumannii [3]; [9]
  Antibiotic MIC, Erythromycin: 2 µg/mL
  Antibiotic MIC, Linezolid: 32 µg/mL
  Antibiotic MIC, Vancomycin: 32 µg/mL
A. baumannii [3]; [10]
  Antibiotic MIC, Erythromycin: 0.25 µg/mL
  Antibiotic MIC, Linezolid: 8 µg/mL
  Antibiotic MIC, Vancomycin: 16 µg/mL
A. baumannii [3]; [11]
  Antibiotic MIC, Erythromycin: 0.125 µg/mL
  Antibiotic MIC, Linezolid: 2 µg/mL
  Antibiotic MIC, Vancomycin: 4 µg/mL
A. baumannii [3]; [12]
  Antibiotic MIC, Erythromycin: 0 µg/mL
  Antibiotic MIC, Linezolid: 0 µg/mL
  Antibiotic MIC, Vancomycin: 0 µg/mL
A. baumannii [3]; [13]
  Antibiotic MIC, Erythromycin: 0 µg/mL
  Antibiotic MIC, Linezolid: 0 µg/mL
  Antibiotic MIC, Vancomycin: 0 µg/mL
MDRAB 12035 [4]; [14]
  Erythromycin MIC during combined treatment with peptide: 32 µg/mL
  Linezolid MIC during combined treatment with peptide: >128 µg/mL
  Vancomycin MIC during combined treatment with peptide: >128 µg/mL
MDRAB 12035 [4]; [15]
  Erythromycin MIC during combined treatment with peptide: 16 µg/mL
  Linezolid MIC during combined treatment with peptide: 128 µg/mL
  Vancomycin MIC during combined treatment with peptide: >128 µg/mL
MDRAB 12035 [4]; [16]
  Erythromycin MIC during combined treatment with peptide: 8 µg/mL
  Linezolid MIC during combined treatment with peptide: 32 µg/mL
  Vancomycin MIC during combined treatment with peptide: 128 µg/mL
MDRAB 12035 [4]; [17]
  Erythromycin MIC during combined treatment with peptide: 4 µg/mL
  Linezolid MIC during combined treatment with peptide: 32 µg/mL
  Vancomycin MIC during combined treatment with peptide: 32 µg/mL
MDRAB 12035 [4]; [18]
  Erythromycin MIC during combined treatment with peptide: 0.5 µg/mL
  Linezolid MIC during combined treatment with peptide: 16 µg/mL
  Vancomycin MIC during combined treatment with peptide: 16 µg/mL
MDRAB 12035 [4]; [19]
  Erythromycin MIC during combined treatment with peptide: 0.25 µg/mL
  Linezolid MIC during combined treatment with peptide: 4 µg/mL
  Vancomycin MIC during combined treatment with peptide: 8 µg/mL
MDRAB 12035 [4]; [20]
  Erythromycin MIC during combined treatment with peptide: 0 µg/mL
  Linezolid MIC during combined treatment with peptide: 0 µg/mL
  Vancomycin MIC during combined treatment with peptide: 0 µg/mL
MDRAB 12035 [4]; [21]
  Erythromycin MIC during combined treatment with peptide: 0 µg/mL
  Linezolid MIC during combined treatment with peptide: 0 µg/mL
  Vancomycin MIC during combined treatment with peptide: 0 µg/mL
E. coli; with Erythromycin […] (Conc./MIC 1)
  Peptide MIC: 0 µg/mL
E. coli; with Linezolid […] (Conc./MIC 1)
  Peptide MIC: 0 µg/mL
E. coli; with Vancomycin 1024 μg/ml (Conc./MIC 1)
  Peptide MIC: 0 µg/mL
MDREC 1229; erythromycin 32 μg/ml (Conc./MIC 1/8)
  Peptide MIC during treatment with antibiotic: 2 µg/mL
MDREC 1229; erythromycin 64 μg/ml (Conc./MIC 1/4)
  Peptide MIC during treatment with antibiotic: 2 µg/mL
MDREC 1229; erythromycin […] (Conc./MIC 1)
  Peptide MIC during treatment with antibiotic: 0 µg/mL
MDREC 1229; erythromycin […] (Conc./MIC 1/2)
  Peptide MIC during treatment with antibiotic: 2 µg/mL
MDREC 1229; linezolid 64 μg/ml (Conc./MIC 1/8)
  Peptide MIC during treatment with antibiotic: 4 µg/mL
MDREC 1229; linezolid 512 μg/ml (Conc./MIC 1)
  Peptide MIC during treatment with antibiotic: 0 µg/mL
MDREC 1229; linezolid […] (Conc./MIC 1/2)
  Peptide MIC during treatment with antibiotic: 1 µg/mL
MDREC 1229; linezolid […] (Conc./MIC 1/4)
  Peptide MIC during treatment with antibiotic: 4 µg/mL
MDREC 1229; vancomycin 512 μg/ml (Conc./MIC 1/2)
  Peptide MIC during treatment with antibiotic: 2 µg/mL
MDREC 1229; vancomycin 1024 μg/ml (Conc./MIC 1)
  Peptide MIC during treatment with antibiotic: 1 µg/mL
MDREC 1229; vancomycin […] (Conc./MIC 1/4)
  Peptide MIC during treatment with antibiotic: 4 µg/mL
MDREC 1229; vancomycin […] (Conc./MIC 1/8)
  Peptide MIC during treatment with antibiotic: 8 µg/mL
[5]
  Antibacterial activity relative to PapMA-1: twice to four times higher
